Reference: US20070265335A1, “POLYMORPHS OF 5-CYCLOPROPYL-2-(4-FLUOROPHENYL)-6-[(2-HYDROXYETHYL)(METHYLSUFONYL)AMINO]-N-METHYL-1-BENZOFURAN-3-CARBOXAMIDE AND METHODS OF MAKING THE SAME” (WYETH, priority 2005, published 2007)

Tests used:
[1] = test system: hepatitis C virus; conditions: as disclosed in U.S. Patent Application Publication No. 2004-0162318; cited from earlier work
[2] = settling from suspension; assay type: physicochemical
Text: (§1) The first embodiment of the present invention is directed to a substantially pure polymorphic form A of 5-cyclopropyl-2-(4-fluorophenyl)-6-[(2-hydroxyethyl)(methylsulfonyl)amino]-N-methyl-1-benzofuran-3-carboxamide. The terms “polymorphic form”, “crystal modification”, “polymorph”, and “crystalline form” are used interchangeably herein. As used herein, the terms “isolated” and/or “substantially pure” mean more than 50% of the crystalline 5-cyclopropyl-2-(4-fluorophenyl)-6-[(2-hydroxyethyl)(methylsulfonyl)amino]-N-methyl-1-benzofuran-3-carboxamide or salt thereof is present in the form described herein and preferably at least 70%, more preferably at least 80%, and most preferably at least 90% of the crystalline form described herein is present. […] The peaks shown therein include: 8.4°, 9.0°, 9.8°, 10.1°, 12.6°, 12.9°, 13.2°, 13.4°, 15.9°, 16.4°, 16.8°, 17.4°, 17.9°, 18.4°, 18.5°, 19.0°, 19.2°, 19.7°, 19.8°, 20.0°, 20.2°, 20.5°, 21.0°, 21.7°, 22.2°, 22.6°, 23.6°, 24.0°, 24.5°, 24.7°, 24.9°, 25.3°, 25.9°, 26.0°, 26.5°, 26.9°, 27.3°, 27.6°, 28.1°, 28.7°, […], 30.0°, 30.7°, 31.0°, 31.9°, 32.1°, 32.5°, 33.6°, 34.4°, 34.8°, 35.1°, 35.6°, 36.7°, 36.9°, 37.5°, 38.4°, 38.8°, 39.2° and 39.6° (2θ degrees); one of ordinary skill in the art will readily understand that an about 0.1° to about 0.2° variation for peak positions is typical. […]

[3] = hygroscopicity on exposure to air; assay type: physicochemical; conditions: exposed to air for a period of about 1 week
Text: as §1

[4] = thermodynamic stability of the crystalline form; assay type: physicochemical; conditions: as indicated by its high melting point of about 175° C.
Text: as §1

Row | Compound | inhibition of the hepatitis C virus [1] | settling from suspension [2] | hygroscopicity [3] | thermodynamic stability of polymorph [4]
1 | CNC(=O)c1c(-c2ccc(F)cc2)oc2cc(N(CCO)S(C)(=O)=O)c(C3CC3)cc12 [5-cyclopropyl-2-(4-fluorophenyl)-6-[(2-hydroxyethyl)(methylsulfonyl)amino]-N-methyl-1-benzofuran-3-carboxamide] | potent inhibitor | – | – | –
2 | CNC(=O)c1c(-c2ccc(F)cc2)oc2cc(N(CCO)S(C)(=O)=O)c(C3CC3)cc12 [form B, 5-cyclopropyl-2-(4-fluorophenyl)-6-[(2-hydroxyethyl)(methylsulfonyl)amino]-N-methyl-1-benzofuran-3-carboxamide] | – | tends not to settle quickly from suspension | – | –
3 | CNC(=O)c1c(-c2ccc(F)cc2)oc2cc(N(CCO)S(C)(=O)=O)c(C3CC3)cc12 [form A, 5-cyclopropyl-2-(4-fluorophenyl)-6-[(2-hydroxyethyl)(methylsulfonyl)amino]-N-methyl-1-benzofuran-3-carboxamide] | – | tends to settle quickly from suspension | non-hygroscopic | thermodynamically favored stable form
